These molecules were tested against T1, 5-hydroxytryptamine receptor 1A (Rattus norvegicus, UniProt P19327).
T1 sequence (P19327 whole entry): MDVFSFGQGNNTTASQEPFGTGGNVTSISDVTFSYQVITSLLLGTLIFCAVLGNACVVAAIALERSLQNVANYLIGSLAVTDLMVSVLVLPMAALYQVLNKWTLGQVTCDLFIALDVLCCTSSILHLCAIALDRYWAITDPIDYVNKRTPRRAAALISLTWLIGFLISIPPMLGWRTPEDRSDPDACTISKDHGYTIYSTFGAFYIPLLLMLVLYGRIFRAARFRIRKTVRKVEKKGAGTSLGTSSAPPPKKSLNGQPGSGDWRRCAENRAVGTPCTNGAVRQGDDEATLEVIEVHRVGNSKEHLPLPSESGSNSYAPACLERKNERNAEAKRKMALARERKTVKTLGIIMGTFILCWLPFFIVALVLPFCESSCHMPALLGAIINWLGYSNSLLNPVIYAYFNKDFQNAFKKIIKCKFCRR

Row | SMILES | Ki [nM]
1 | CCCN(CCCCN1C(=O)CC2(CCCC2)CC1=O)C1COc2cccc(OC)c2C1 (stereo not drawn) | 0.1
2 | CCCN(CCC)C1CCc2cccc(OC)c2C1 (stereo not drawn) | 2.63
3 | CNCC(COc1cccc(C(F)(F)F)c1)c1ccccc1 (stereo not drawn) | 66100
4 | NCCc1c[nH]c2ccc(C(N)=O)cc12 | 0.295
5 | Oc1ccc2cccc(N3CCNCC3)c2c1 | 3.31
6 | Cn1cc(CCN)c2c3c(ccc21)OCCC3 | 2630
7 | C=CCN(CCC)C1CCc2cccc(OS(=O)(=O)C(F)(F)F)c2C1 (stereo not drawn) | 9.55
8 | CC(C)CN1CCN(c2cccc(Cl)c2)CC1 | 64.6
9 | CCCN(CCC)C1COc2ccccc2C1 (stereo not drawn) | 200
10 | CCCN(CCCCNS(=O)(=O)c1ccc(C)cc1)C1COc2cccc(OC)c2C1 (stereo not drawn) | 1
11 | CCCCN(CCCC)CC(O)COc1cccc2ccccc12 (stereo not drawn) | 224
12 | NCCc1c[nH]c2ccc(N)cc12 | 708
13 | Oc1ccc2[nH]cc(C3=CCNCC3)c2c1 | 15.1
14 | N#Cc1ccc2[nH]cc(C3=CCNCC3)c2c1 | 16.2
15 | CCCN(CCN1C(=O)c2ccccc2C1=O)C1COc2cccc(OC)c2C1 (stereo not drawn) | 398
16 | CCCN(CCC)C1CCc2cccc(CO)c2C1 (stereo not drawn) | 129
17 | CN(C)CCc1cn(C)c2ccc3c(c12)CCCO3 | 2690
18 | C#Cc1cccc2c1CC(N(CCC)CCC)CC2 (stereo not drawn) | 15.8
19 | C=C=CN1CCN(c2cccc(Cl)c2)CC1 | 251
20 | COc1ccccc1N1CCN(CCCc2ccccc2)CC1 | 3.72
21 | CCCN(CCC)C1CCc2cccc(C3CCCCC3)c2C1 (stereo not drawn) | 24
22 | COc1ccccc1N1CCN(CCN2C(=O)c3ccccc3C2=O)CC1 | 1000
23 | CC(C)(C)NCC(O)COc1ccc2c(c1)C[C@H](O)[C@H](O)C2 (stereo partly drawn) | 1070
24 | Cc1[nH]c2ccc(O)cc2c1CCN | 2510
25 | COc1cccc2c1CC(N)CC2 (stereo not drawn) | 178
26 | CCCN(CCNC(C)=O)C1COc2cccc(OC)c2C1 (stereo not drawn) | 20

Row | SMILES | Ki [nM]
27 | CCCOCOCCc1ccc(OCC(O)CNC(C)C)cc1 (stereo not drawn) | 10000
28 | NCCCCN1CCN(c2ccccc2)CC1 | 6030
29 | CC(C)NCC(O)COc1cccc2[nH]c(C#N)cc12 (stereo not drawn) | 2.14
30 | CCCN(CCCCN1C(=O)CC2(CCCC2)CC1=O)C1COc2ccccc2C1 (stereo not drawn) | 1
31 | CCCCN1CCN(c2ccccc2OC)CC1 | 129
32 | O=C1CC2(CCCC2)CC(=O)N1CCN1CCN(c2ncccn2)CC1 | 151
33 | CC(C)NCC(O)COc1ccc(CCOCCOC(C)C)cc1 (stereo not drawn) | 10000
34 | CCCN(CCC)C1CCc2cccc(C(=O)OC)c2C1 (stereo not drawn) | 1.7
35 | COc1ccccc1N1CCN(CCCCNC2CC3CCC2C3)CC1 (stereo not drawn) | 3.98
36 | COc1ccccc1N1CCN(CCCN2C(=O)c3ccccc3C2=O)CC1 | 20
37 | O=C1c2ccccc2C(=O)N1CCCCN1CCN(c2cccc(Cl)c2)CC1 | 4.68
38 | CC(C)C(=O)N1CCN(c2cccc(Cl)c2)CC1 | 100000
39 | Fc1ccc2[nH]cc(C3=CCNCC3)c2c1 | 32.4
40 | Cc1ccc(OCC(O)CNC(C)C)c2c1CCC2 (stereo not drawn) | 19100
41 | CCCN(CCC)C1CCc2cccc(C(=O)O)c2C1 (stereo not drawn) | 302
42 | CCCN(CCCCCCN1C(=O)CC2(CCCC2)CC1=O)C1COc2cccc(OC)c2C1 (stereo not drawn) | 0.501
43 | O=C1c2ccccc2C(=O)N1CCN1CCN(c2ccccc2)CC1 | 10000
44 | COc1ccccc1N1CCN(CCCCNC(=O)C2CCCCC2)CC1 | 0.603
45 | CCCN(CCCCN1C(=O)CC(C)(C)CC1=O)C1COc2cccc(OC)c2C1 (stereo not drawn) | 2
46 | CCCNC1CCc2cccc(OC)c2C1 (stereo not drawn) | 4.79
47 | COc1ccccc1N1CCN(CCc2ccccc2)CC1 | 1.82
48 | CCCN(CCC)C1CCc2cccc(C)c2C1 (stereo not drawn) | 61.7
49 | CCCN(CCC)CC(O)CO (stereo not drawn) | 2750
50 | CCCN(C1COc2cccc(OC)c2C1)N1C(=O)c2ccccc2S1(=O)=O (stereo not drawn) | 0.501
51 | CC(=O)N1CCN(c2cccc(Cl)c2)CC1 | 100000
52 | CC(O)CN(CC(C)O)CC(O)COc1cccc2ccccc12 (stereo not drawn) | 1320

Row | SMILES | Ki [nM]
53 | CN(C)CCc1c[nH]c2cc3c(cc12)CCCO3 | 603
54 | NCCc1c[nH]c2ccc3c(c12)CCCO3 | 302
55 | CN1CC=C(c2c[nH]c3ccc(Br)cc23)CC1 | 15.1
56 | O=C1CC2(CCCC2)CC(=O)N1CCCN1CCN(c2ncccn2)CC1 | 214
57 | CN1CCN(c2nc3cc(C(F)(F)F)ccc3n3cccc23)CC1 | 9.55
58 | COc1ccccc1N1CCN(CCCCN2C(=O)CC3(CCCC3)CC2=O)CC1 | 2
59 | CC(C)NCC(O)COc1cccc2[nH]c(OC(=O)OC(C)C)cc12 (stereo not drawn) | 17.4
60 | Brc1ccc2[nH]cc(C3=CCNCC3)c2c1 | 6.46
61 | CN(C)CC(O)COc1cccc2ccccc12 (stereo not drawn) | 347
62 | COc1ccccc1OCC(O)CN(C)C (stereo not drawn) | 3020
63 | CCCN(CCCN1C(=O)CC2(CCCC2)CC1=O)C1COc2cccc(OC)c2C1 (stereo not drawn) | 0.501
64 | CN1CCN(c2cccc3c2OCCO3)CC1 | 22.9
65 | COc1ccccc1N1CCN(CCCOc2cccc3ccccc23)CC1 | 8.91
66 | CCCN(CCC)C1CCc2cccc(C#N)c2C1 (stereo not drawn) | 37.2
67 | CNCCc1c[nH]c2ccc(O)cc12 | 4.9
68 | CN1CC=C(c2c[nH]c3ccc(N)cc23)CC1 | 24500
69 | C1=C(c2c[nH]c3ccccc23)CCNC1 | 141
70 | c1ccc2cc(N3CCNCC3)ccc2c1 | 3240
71 | CCCN(CCCCNC(=O)c1ccc(F)cc1)C1COc2cccc(OC)c2C1 (stereo not drawn) | 0.2
72 | CCCN(CCC)C1COc2cccc(O)c2C1 (stereo not drawn) | 2
73 | COc1ccc2cccc(N3CCN(CCNC(=O)c4cccs4)CC3)c2c1 | 0.562
74 | CCCN(CCCNS(=O)(=O)c1ccc(C)cc1)C1COc2cccc(OC)c2C1 (stereo not drawn) | 1.51
75 | CCCN(CCNS(=O)(=O)c1ccc(C)cc1)C1COc2cccc(OC)c2C1 (stereo not drawn) | 1
76 | O=C1C=CC(c2[nH]c3ccccc3c2C2=CCNCC2)=NC1 | 1510
77 | CN(C)CC(O)COc1ccccc1O (stereo not drawn) | 4900
78 | CC(CN)c1c[nH]c2ccc(O)cc12 (stereo not drawn) | 85.1

Row | SMILES | Ki [nM]
79 | CCCCCCCCN1CCN(c2ccccc2)CC1 | 11.2
80 | COc1cccc2c1CC(N1CCCCC1)CC2 (stereo not drawn) | 77.6
81 | FC(F)(F)c1ccc2c(c1)nc(N1CCNCC1)c1cccn12 | 18.6
82 | COc1ccccc1N1CCN(CCCCCc2ccccc2)CC1 | 5.62
83 | O=C1c2ccccc2C(=O)N1CCCCN1CCN(c2ccccn2)CC1 | 6.17
84 | CCCN(CCC)C1CCc2cccc(C(=O)C3CCCCC3)c2C1 (stereo not drawn) | 15.8
85 | CCCCN1CCN(c2cccc3ccccc23)CC1 | 7.08
86 | COc1ccccc1N1CCN(CCCCNc2ccc([N+](=O)[O-])c3nonc23)CC1 | 0.398
87 | CCCN(CCCON1C(=O)CC2(CCCC2)CC1=O)C1COc2cccc(OC)c2C1 (stereo not drawn) | 0.501
88 | O=C1c2ccccc2S(=O)(=O)N1CCCCN1CCN(c2ccccn2)CC1 | 6.92
89 | Clc1ccc2[nH]cc(C3=CCNCC3)c2c1 | 13.2
90 | CCCN(CCCCNC(=O)c1ccccc1OC)C1COc2cccc(OC)c2C1 (stereo not drawn) | 0.501
91 | c1ccc2c(c1)CCC2N1CCN(c2cccc3c2OCCO3)CC1 (stereo not drawn) | 1.82
92 | CN1CC=C(c2c[nH]c3ccc(Cl)cc23)CC1 | 26.3
93 | CCCN(CCCCN1C(=O)c2ccccc2C1=O)C1COc2cccc(OC)c2C1 (stereo not drawn) | 2.51
94 | O=[N+]([O-])c1ccc2[nH]cc(C3=CCNCC3)c2c1 | 18.2
95 | CCCN(CCN1C(=O)CC2(CCCC2)CC1=O)C1COc2cccc(OC)c2C1 (stereo not drawn) | 15.1
96 | CN1CC=C(c2c[nH]c3ccc([N+](=O)[O-])cc23)CC1 | 37.2
97 | COc1ccccc1N1CCN(CCCCNC(=O)C(C)c2ccccc2)CC1 (stereo not drawn) | 10
98 | COc1ccccc1N1CCN(CCCCNCc2ccccc2)CC1 | 60.3
99 | CCCN(CCC)C1COc2cccc(OC)c2C1 (stereo not drawn) | 10
100 | CC1(C)CC(=O)N(CCCCN2CCN(c3ccccn3)CC2)C(=O)C1 | 70.8
101 | CCCN(CCCCN1C(=O)c2ccccc2C1=O)C1COc2cccc(O)c2C1 (stereo not drawn) | 44.7
102 | COc1ccccc1N1CCN(CCCCc2ccccc2)CC1 | 1
103 | CN1CC=C(c2c[nH]c3ccc(C4COCCO4)cc23)CC1 (stereo not drawn) | 87.1
104 | COc1c(Cl)cccc1N1CCNCC1 | 871

Row | SMILES | Ki [nM]
105 | CCCN(CCC)C1CCc2ccccc2C1 (stereo not drawn) | 56.2
106 | Clc1cccc(N2CCN(C3CC3)CC2)c1 | 158
107 | CCCN(CCCCN1CCOCC1)C1COc2cccc(OC)c2C1 (stereo not drawn) | 3.98
108 | COc1cccc2c1CC(N1CCCC1)CO2 (stereo not drawn) | 3.47
109 | CCCCCCCCN1CCN(c2cccc3c2OCCO3)CC1 | 1
110 | CC(C)(C)NCC(O)COc1cccc2c1NC(=O)CC2 (stereo not drawn) | 224
111 | CCCN(CCC)C1CCc2cccc(C(C)=O)c2C1 (stereo not drawn) | 0.708
112 | CN1CCN(c2cccc3ccoc23)CC1 | 7.94
113 | CNCC(O)CO (stereo not drawn) | 3310
114 | O=C1c2ccccc2C(=O)N1CCCCN1CCN(c2ccccc2Cl)CC1 | 5.01
115 | CN(C)CCc1c[nH]c2ccc3c(c12)CCCO3 | 955
116 | CCCN(CCC)CC(O)COc1cccc2ccccc12 (stereo not drawn) | 447
117 | CCCN(CCCCN1CCCCC1)C1COc2cccc(OC)c2C1 (stereo not drawn) | 1
118 | CCCc1ccc2c(c1CCC)CC(N(CCC)CCC)CO2 (stereo not drawn) | 10000
119 | CCCN1CC=C(c2c[nH]c3ccc(C(=O)OC)cc23)CC1 | 380
120 | O=C(c1ccccc1)N1CCN(c2cccc(Cl)c2)CC1 | 100000
121 | CCCN(CCCN1C(=O)c2ccccc2C1=O)C1COc2cccc(OC)c2C1 (stereo not drawn) | 50.1
122 | O=C(NCCN1CCN(/C(O)=C2/COCCO2)CC1)c1ccc(F)cc1 | 9.12
123 | O=C1c2ccccc2C(=O)N1CCCCN1CCN(c2ccccc2)CC1 | 8.51
124 | Cc1ccc2[nH]cc(C3=CCN(C)CC3)c2c1 | 31.6
125 | CC(C)NCC(O)COc1ccccc1 (stereo not drawn) | 170
126 | COc1ccccc1N1CCNCC1 | 12.9
127 | CN(C)CC(O)CO (stereo in doubt; 122) | 5010
128 | CN(C)CC(O)CO (stereo in doubt; 123) | 4900

Reference: ChEMBL document CHEMBL1129278, “Binding of arylpiperazines, (aryloxy)propanolamines, and tetrahydropyridylindoles to the 5-HT1A receptor: contribution of the molecular lipophilicity potential to three-dimensional quantitative structure-affinity relationship models” (J Med Chem, 1996)
